Where “and” joins values, the source holds several entries; their conditions need not be identical. Identical values can stand only once.
Experiments:
Assay type in all cases: in vivo, human
[1] = system: statin induced muscle pain; experiment: Pilot clinical study: McGill Pain Questionnaire scores (PRI, PPI) in statin patients given magnesium orotate; set-up: key to PRI—Pain Rating Index: McGill PRI; higher scores = more pain; settings: for PPI—Present Pain Intensity: score 0 to 5; for PPI—Present Pain Intensity / PRI—Pain Rating Index: 1600 mg/day magnesium orotate
From the text: (§1) Table 1 outlines data for seventeen patients (numbered #i-#xvii) undergoing statin therapy for treatment of hypercholesterolemia and who had reported suffering from varying levels of muscular pain and fatigue. This study is ongoing but the results below follow the study in relation to these patients for varying periods, from day 0 (T0d) up to a maximum of 56 days (T56d).
(§2) The design of the clinical trial involves a blood sample being taken from the patients prior to commencing medication administration and then on four further occasions during the 13 week trial, at around days 13-16, days 26-30, days 35-60 and finally at days 80-90. Patients were also required to submit answers to a questionnaire on approximately a weekly basis to enable patients to be scored for pain using the McGill Pain Questionnaire (Melzack, R., 1975 “The McGill Pain Questionnaire: Major Properties and Scoring Methods”. Pain 1:277-299, the disclosure of which is included herein in its entirety by way of reference) scales for Pain Rating Index (PRI) and Present Pain Intensity (PPI). In the PRI index, which comprises two scores, higher scores indicate increasing levels of pain. In the PPI index present pain is given a score of 0 to 5, where 0 represents no pain and 5 represents excruciating pain. Patients were also scored prior to commencement of the trial medication for fatigue using the Fatigue Impact Scale (Fisk, J. D. et al, 1994, “Measuring the functional impact of fatigue: Initial Validation of the Fatigue Impact Scale”, Clinical Infectious Disease, 18 (Suppl 1):S79-83, the disclosure of which is included herein in its entirety by way of reference). On the first week at the clinic, prior to commencement of the trial medication, details of the patients' statin medication were recorded and daily doses noted.
(§3) After the pre-trial medication blood samples and questionnaires were taken (T0d) patients commenced taking daily doses of 1600 mg of magnesium orotate, administered as 2×400 mg tablets, morning and evening.
(§4) A preliminary statistical analysis of the results of the PRI, PPI and FIS tests for the patients on the trial as a group are presented in Table 3, below.

statin induced fatigue = experiment: Pilot clinical study: Fatigue Impact Scale (FIS) in statin patients given magnesium orotate; set-up: FIS—Fatigue Impact Scale: scale not given here; settings: for FIS—Fatigue Impact Scale: 1600 mg/day magnesium orotate
From the text: as §1, §2, §3, §4

[2] = Pilot clinical study: monitoring of blood serum components
From the text: as §2, §3
Blood samples were taken prior to commencement of trial medication (T0d) and after approximately 14 (T14d), 28 (T28d), 42 (T42d) and 56 (T56d) days to determine individual to baseline levels of uridine (μg/ml) arising from magnesium orotate (MgOr) administration, to thereby monitor patient compliance. Blood samples taken were also used to determine creatine kinase concentration (CK) (units/L), gamma glutaryl transferase (GGT) concentration, aspartate amino transferase (AST) concentration and alanine aminotransferase concentration (ALT) (units/L), as well as serum lipid levels including total cholesterol concentration, high density lipoprotein (HDL-CHOL) concentration, low density lipoprotein (LDL-CHOL) concentration, tryglyceride (TRIG) concentration and levels of other serum components routinely tested for including magnesium ion concentration.

[3] = most patients undergoing the magnesium orotate therapy
[4] = patients within the normal ranges at commencement of the trial

In the case of magnesium orotate, the “PPI—Present Pain Intensity” value ([1]; T7d, baseline in T0d) is reported as 2 (4×) and 1 (9×) and 0 (3×), the “PRI—Pain Rating Index” value ([1]; T14d) is reported as 9 (2×) and 8 and 28 and 16 and 23 and 42 and 4 and 7 and 15 and 37 and 2 and 3 and 0 and 6 and the “PPI—Present Pain Intensity” value ([1]; T14d) is reported as 2 (6×) and 1 (9×). The “PRI—Pain Rating Index” value ([1]; T21d) was 9 (2×) and 8 (2×) and 24 and 13 and 15 and 42 and 2 and 35 and 0 and 3 and 12, the “PPI—Present Pain Intensity” value ([1]; T21d) was 2 (5×) and 1 (7×) and 0 and the “PRI—Pain Rating Index” value ([1]; T28d) was 2 (3×) and 3 (2×) and 11 and 4 and 0. For the same substance, the “PPI—Present Pain Intensity” value ([1]; T28d) was 1 (4×) and 0 (3×) and 2, the “PRI—Pain Rating Index” value ([1]; T35d) was 0 and the “PPI—Present Pain Intensity” value ([1]; T35d) was 0. The “PRI—Pain Rating Index” value ([1]; T42d) was 0, the “PPI—Present Pain Intensity” value ([1]; T42d) was 0 and the “PRI—Pain Rating Index” value ([1]; T49d) was 0. For the same substance, the “PPI—Present Pain Intensity” value ([1]; T49d) was 0, the “PRI—Pain Rating Index” value ([1]; T56d) was 0 and the “PPI—Present Pain Intensity” value ([1]; T56d) was 0. For the same substance, the “PRI and PPI pain scores” value [1, 3] was “significant improvements”, the “FIS—Fatigue Impact Scale” value (statin induced fatigue; T7d, baseline in T0d) was 0 and 19 and 9 and 23 and 88 and 7 and 24 and 17 and 101 and 5 and 47 and 77 and 44 and 40 and 6 and 21 and the “FIS—Fatigue Impact Scale” value (statin induced fatigue; T14d) was 0 and 38 and 25 and 86 (2×) and 9 (3×) and 32 and 49 and 3 and 48 and 31 and 11 and 21. For the same substance, the “FIS—Fatigue Impact Scale” value (statin induced fatigue; T21d) was 0 and 19 and 18 and 39 and 92 and 4 and 30 and 8 and 91 and 10 and 67 and 21 and 3, the “FIS—Fatigue Impact Scale” value (statin induced fatigue; T28d) was 0 and 22 and 51 and 1 and 7 and 77 and 9 and 50 and the “FIS—Fatigue Impact Scale” value (statin induced fatigue; T35d) was 0 and 22. The “FIS—Fatigue Impact Scale” value (statin induced fatigue; T42d) was 0 and 13, the “FIS—Fatigue Impact Scale” value (statin induced fatigue; T49d) was 0 and the “FIS—Fatigue Impact Scale” value (statin induced fatigue; T56d) was 0. The FIS fatigue score (statin induced fatigue; [3]) was “significant improvements”, the serum uridine concentration ([2]; all patients on the trial, data not presented) was “increase” and the GGT serum concentration ([2]; day 43, only patient significantly outside normal range at commencement, dropped from 96 U/L at day 0) was 83 U/L. For the same substance, the AST serum concentration ([2]; day 43, same patient, dropped from 56 U/L at commencement) was 42 U/L, the ALT serum concentration ([2]; day 43, same patient, dropped from 105 U/L at commencement) was 74 U/L and the “alanine amino transferase (ALT) serum concentration” value [2, 4] was “no significant impact”. The “aspartate amino transferase (AST) serum concentration” value [2, 4] was “no significant impact”, the “gamma glutaryl transferase (GGT) serum concentration” value [2, 4] was “no significant impact” and the “serum creatine kinase concentration (CK)” value [2, 4] was “no significant impact”.

Reference: patent US8293755B2, “Treatment of statin side effects using uridine derivatives” (Magral Pty Ltd., priority 2001, dated 2012)
